Results published in patent US20210290541A1, “SOLID DISPERSION OF HYDANTOIN DERIVATIVE” (Chugai Seiyaku Kabushiki Kaisha, priority 2018, published 2021).
Converted amounts (≈) assume the structure as drawn. Values belong to the compound of their own block, whether it stands above or below them.

Assays:
Assay type in all cases: physicochemical
pKa values = experiment: pKa values
Text: (§1) Compound I can be produced, for example, by the method described in Example 3 (Compound 7) of WO2014/092061.
In the present invention, the “base” preferably has a pKa value greater than that of Compound I. Since the lower pKa value of Compound I is about 8, the bases that can be used in the present invention desirably have a pKa value that is preferably more than about 9, even more preferably more than about 10, and most preferably more than about 11. Here, the term pKa is used in its conventional form. That is, pKa is the negative logarithm of the ionization constant of the acid. Unless otherwise specified, pKa is assumed to be measured in distilled water at 25° C.

water solubility = details: 37° C., pH 6 to 7
Text: as §1

[1] = solubility in FaSSIF (excess amount, stirring 24 hours or more, centrifugation, HPLC)
Experimental: A suitable FaSSIF is, for example, an aqueous solution containing 28.7 mM potassium dihydrogen phosphate (KH2PO4), 103.3 mM KCl, 3 mM sodium taurocholate, and 0.8 mM L-α-phosphatidylcholine, and adjusted to pH 6.5 using NaOH.
Furthermore, for the purpose of evaluating the solubility of the type I crystal of the free form of Compound I in FaSSIF, an excess amount of the type I crystal of the free form of Compound I was placed in FaSSIF, and after soaking and stirring at 37° C. for 24 hours or more, this was subjected to centrifugation. […] In addition, the solubility of the type II crystal of the free form of Compound I evaluated in the same manner was 2 μg/mL.

[2] = organic solvent solubility; details: for solubility: organic solvent or mixture
Experimental: as §1
A solvent suitable for solvent treatment may be any compound in which drugs, polymers, and bases are mutually soluble. Preferably, the solvent is also volatile and has a boiling point of 150° C. or lower. Furthermore, the solvent should have relatively low toxicity and should be removed from the solid dispersion to a level that is acceptable according to the guidelines of the International Council for Harmonization of Technical Requirements for Pharmaceuticals for Human Use (ICH). Removal of the solvent to this level may require a subsequent processing step such as tray-drying. Preferred solvents include alcohols such as methanol, ethanol, n-propanol, iso-propanol, and butanol; ketones such as acetone, methyl ethyl ketone, and methyl iso-butyl ketone; esters such as ethyl acetate and propyl acetate; and various other solvents, such as acetonitrile, methylene chloride, toluene, 1,1,1-trichloroethane, and tetrahydrofuran. Low-volatility solvents such as dimethylacetamide or dimethylsulfoxide can also be used in small amounts in mixtures with volatile solvents. A mixture of solvents such as 50% methanol and 50% acetone can also be used in the same manner as a mixture with water. Preferred solvents are ethanol, methanol, acetone, tetrahydrofuran, ethyl acetate, mixtures of these with water, and mixtures thereof. […] In particular, tetrahydrofuran and its mixed liquids can be referred to as preferred solvents.

[3] = storage stability of crystals

pKa (pKa values; distilled water): 8
solubility (water solubility): < 0.001 mg/mL
solubility ([1]; FaSSIF, 37 °C, pH 6.5, fassif, thermodynamic from solid): 0.001 mg/mL (≈ 1.57 µM)
SMILES: Cc1cc(N2C(=O)NC(=O)C2(C)C)cc(C)c1CCS(=O)(=O)N1CCC2(CC1)N=C(c1ccc(OC(F)(F)F)cc1)NC2=O

solubility ([2]; acetone/water mixture (95:5 v/v), volume ratio 95:5, read-out: solubility in a mixed solution of acetone and water): ≥ 50 mg/mL
solubility ([2]; tetrahydrofuran, room temperature, read-out: solubility in THF (tetrahydrofuran)): ≥ 80 mg/mL
solubility ([2]; tetrahydrofuran/methanol mixture (95:5 v/v), volume ratio 95:5, read-out: solubility in a mixed solution of tetrahydrofuran and methanol): ≥ 100 mg/mL
pKa values (pKa values): about 8
SMILES: Cc1cc(N2C(=O)NC(=O)C2(C)C)cc(C)c1CCS(=O)(=O)N1CCC2(CC1)N=C(c1ccc(OC(F)(F)F)cc1)NC2=O [Compound I, 1-(3,5-dimethyl-4-(2-((4-oxo-2-(4-(trifluoromethoxy)phenyl)-1,3,8-triazaspiro[4.5]deca-1-en-8-yl)sulfonyl)ethyl)phenyl)-5,5-dimethylimidazolidine-2,4-dione]

storage stability [3]: excellent storage stability
solubility in THF (tetrahydrofuran) ([2]; room temperature): ≥ 80 mg/mL
SMILES: Cc1cc(N2C(=O)NC(=O)C2(C)C)cc(C)c1CCS(=O)(=O)N1CCC2(CC1)N=C(c1ccc(OC(F)(F)F)cc1)NC2=O [type I crystal of the free form of Compound I]

solubility in FaSSIF ([1]; 37° C.): 0.002 mg/mL (≈ 3.15 µM)
SMILES: Cc1cc(N2C(=O)NC(=O)C2(C)C)cc(C)c1CCS(=O)(=O)N1CCC2(CC1)N=C(c1ccc(OC(F)(F)F)cc1)NC2=O [type II crystal of the free form of Compound I]
